pKi: −log10 of the molar value.
How the values were obtained:
[1] = molecular target: T1, 5-HT1A receptor (Homo sapiens, UniProt P08908); experiment: 5-HT1A receptor radioligand competition assay (SPA, 8-hydroxy-DPAT); assay type: binding; settings: for 5-HT1A receptor binding, in words (competition curves FIGS. 22B-22L): ligand 3 nM to 1 mM
T1 construct: purchased Perkin Elmer 6110501400UA
T1 sequence (P08908 1-422): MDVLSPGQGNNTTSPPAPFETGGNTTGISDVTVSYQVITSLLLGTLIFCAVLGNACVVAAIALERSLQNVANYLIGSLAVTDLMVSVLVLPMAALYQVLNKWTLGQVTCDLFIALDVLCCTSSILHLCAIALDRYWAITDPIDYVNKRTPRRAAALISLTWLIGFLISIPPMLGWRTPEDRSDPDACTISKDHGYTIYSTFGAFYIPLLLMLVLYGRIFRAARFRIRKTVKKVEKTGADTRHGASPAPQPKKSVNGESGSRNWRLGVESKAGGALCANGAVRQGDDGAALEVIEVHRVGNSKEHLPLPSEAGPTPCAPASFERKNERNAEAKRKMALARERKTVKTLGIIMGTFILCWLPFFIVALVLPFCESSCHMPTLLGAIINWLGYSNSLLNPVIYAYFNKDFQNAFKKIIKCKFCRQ

[2] = molecular target: T2, D2 receptor (Homo sapiens, UniProt P14416); experiment: Eurofins Cerep competition binding assay at D2 receptor; settings: test ligand 10 μM; [3H]methylspiperone 0.3 nM; recombinant receptor, HEK-293 membranes
T2 construct: host or cells: HEK-293
T2 sequence (P14416 1-414 isoform P14416-2): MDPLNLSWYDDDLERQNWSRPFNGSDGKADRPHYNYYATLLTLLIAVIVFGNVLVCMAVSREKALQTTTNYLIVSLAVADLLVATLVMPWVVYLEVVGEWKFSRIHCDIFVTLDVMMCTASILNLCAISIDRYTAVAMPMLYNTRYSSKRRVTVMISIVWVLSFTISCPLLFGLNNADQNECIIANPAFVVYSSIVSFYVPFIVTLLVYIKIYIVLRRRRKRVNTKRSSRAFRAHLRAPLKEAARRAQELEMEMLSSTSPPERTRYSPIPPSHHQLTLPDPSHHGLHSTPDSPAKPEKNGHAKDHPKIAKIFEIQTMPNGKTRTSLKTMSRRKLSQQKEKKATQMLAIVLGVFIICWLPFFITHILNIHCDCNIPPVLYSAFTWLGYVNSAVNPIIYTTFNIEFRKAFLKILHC

[3] = molecular target: T3, dopamine transporter (DAT) (Homo sapiens, UniProt Q01959); experiment: Eurofins Cerep competition binding assay at dopamine transporter; settings: test ligand 10 μM; [3H]BTCP 4 nM; recombinant transporter, CHO membranes
T3 construct: host or cells: CHO
T3 sequence (Q01959 whole entry): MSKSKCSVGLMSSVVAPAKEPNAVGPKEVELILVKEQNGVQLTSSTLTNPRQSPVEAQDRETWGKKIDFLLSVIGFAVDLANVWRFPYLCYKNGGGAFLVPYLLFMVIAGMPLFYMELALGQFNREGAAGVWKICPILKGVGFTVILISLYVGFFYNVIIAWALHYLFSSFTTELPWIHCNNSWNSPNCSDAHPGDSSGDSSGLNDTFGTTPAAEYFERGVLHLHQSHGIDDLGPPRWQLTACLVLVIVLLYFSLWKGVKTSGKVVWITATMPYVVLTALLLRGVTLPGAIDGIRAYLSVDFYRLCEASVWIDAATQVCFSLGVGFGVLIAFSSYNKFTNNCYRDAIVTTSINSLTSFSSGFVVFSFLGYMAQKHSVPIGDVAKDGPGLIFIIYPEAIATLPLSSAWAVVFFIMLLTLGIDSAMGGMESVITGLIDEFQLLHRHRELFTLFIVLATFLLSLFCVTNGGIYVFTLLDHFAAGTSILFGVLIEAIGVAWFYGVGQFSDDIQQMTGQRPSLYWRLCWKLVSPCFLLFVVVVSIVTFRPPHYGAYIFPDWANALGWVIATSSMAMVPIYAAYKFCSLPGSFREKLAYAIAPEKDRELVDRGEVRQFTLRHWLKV

[4] = molecular target: T4, D3 receptor (Homo sapiens, UniProt P35462); experiment: Eurofins Cerep competition binding assay at D3 receptor; settings: test ligand 10 μM; [3H]methylspiperone […]; recombinant receptor, CHO membranes
T4 construct: host or cells: CHO
T4 sequence (P35462 whole entry): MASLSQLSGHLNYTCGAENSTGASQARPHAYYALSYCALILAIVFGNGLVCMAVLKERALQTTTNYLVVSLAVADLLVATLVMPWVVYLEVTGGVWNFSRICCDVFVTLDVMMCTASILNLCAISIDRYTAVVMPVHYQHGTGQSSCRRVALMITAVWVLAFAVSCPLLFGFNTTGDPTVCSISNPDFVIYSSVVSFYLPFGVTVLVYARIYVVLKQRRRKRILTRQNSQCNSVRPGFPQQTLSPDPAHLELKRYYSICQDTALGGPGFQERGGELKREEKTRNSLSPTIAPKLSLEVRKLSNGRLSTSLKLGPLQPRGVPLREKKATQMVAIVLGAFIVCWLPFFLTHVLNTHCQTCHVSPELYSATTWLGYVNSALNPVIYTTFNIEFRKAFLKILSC

[5] = molecular target: T5, serotonin transporter (SERT) (Homo sapiens, UniProt P31645); assay type: binding
T5 construct: host or cells: CHO
T5 sequence (P31645 whole entry): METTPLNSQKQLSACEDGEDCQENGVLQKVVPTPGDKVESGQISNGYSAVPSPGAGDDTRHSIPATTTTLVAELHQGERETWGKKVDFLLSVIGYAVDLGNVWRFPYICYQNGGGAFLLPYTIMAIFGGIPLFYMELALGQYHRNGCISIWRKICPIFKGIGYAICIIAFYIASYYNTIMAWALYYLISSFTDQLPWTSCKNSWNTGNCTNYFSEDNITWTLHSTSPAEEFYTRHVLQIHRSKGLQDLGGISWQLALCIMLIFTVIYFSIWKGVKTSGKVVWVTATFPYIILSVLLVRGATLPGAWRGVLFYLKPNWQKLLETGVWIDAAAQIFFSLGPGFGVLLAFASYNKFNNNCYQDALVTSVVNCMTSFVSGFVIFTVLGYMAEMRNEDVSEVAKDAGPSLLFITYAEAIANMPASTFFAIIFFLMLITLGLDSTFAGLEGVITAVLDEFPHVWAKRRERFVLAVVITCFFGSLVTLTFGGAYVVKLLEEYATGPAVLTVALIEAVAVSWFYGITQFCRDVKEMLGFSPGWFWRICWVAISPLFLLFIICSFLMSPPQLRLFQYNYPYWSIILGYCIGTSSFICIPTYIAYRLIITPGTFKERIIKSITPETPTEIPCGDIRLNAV

[6] = molecular target: T1, 5-HT1A receptor; experiment: Eurofins Cerep competition binding assay at 5-HT1A receptor; settings: test ligand 10 μM; [3H]8-OH-DPAT 0.5 nM; recombinant receptor, HEK-293 membranes
[7] = molecular target: T6, 5-HT2A receptor (Homo sapiens, UniProt P28223); assay type: binding; settings: test ligand 10 μM; [125I](±)DOI 0.1 nM; recombinant receptor, HEK-293 membranes
T6 construct: host or cells: HEK-293
T6 sequence (P28223 whole entry): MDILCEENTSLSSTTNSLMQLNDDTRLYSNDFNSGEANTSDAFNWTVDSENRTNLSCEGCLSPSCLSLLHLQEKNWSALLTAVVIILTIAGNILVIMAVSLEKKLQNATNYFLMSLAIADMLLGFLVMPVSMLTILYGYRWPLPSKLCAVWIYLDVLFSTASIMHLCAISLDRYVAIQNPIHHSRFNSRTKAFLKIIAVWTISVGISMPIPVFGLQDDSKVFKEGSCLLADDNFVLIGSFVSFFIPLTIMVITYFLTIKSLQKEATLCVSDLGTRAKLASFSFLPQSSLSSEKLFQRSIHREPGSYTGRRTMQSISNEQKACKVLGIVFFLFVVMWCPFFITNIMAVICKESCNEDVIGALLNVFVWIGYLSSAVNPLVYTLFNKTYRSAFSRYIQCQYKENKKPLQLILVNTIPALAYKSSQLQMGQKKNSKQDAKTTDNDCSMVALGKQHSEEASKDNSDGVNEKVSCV

[8] = molecular target: T7, MT1 receptor (Homo sapiens, UniProt P48039); experiment: Eurofins Cerep competition binding assay at MT1 receptor; settings: test ligand 10 μM; [125I]2-iodomelatonin 0.01 nM; recombinant receptor, CHO membranes
T7 construct: host or cells: CHO
T7 sequence (P48039 whole entry): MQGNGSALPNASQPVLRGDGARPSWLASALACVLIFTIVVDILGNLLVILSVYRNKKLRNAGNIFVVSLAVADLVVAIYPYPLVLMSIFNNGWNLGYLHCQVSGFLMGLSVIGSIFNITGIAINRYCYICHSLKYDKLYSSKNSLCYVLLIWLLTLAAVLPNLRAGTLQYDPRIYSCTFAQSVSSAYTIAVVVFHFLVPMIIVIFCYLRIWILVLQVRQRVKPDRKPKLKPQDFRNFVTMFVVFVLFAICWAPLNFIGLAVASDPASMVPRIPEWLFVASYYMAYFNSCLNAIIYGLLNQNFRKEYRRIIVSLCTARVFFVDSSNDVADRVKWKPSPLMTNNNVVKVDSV

[9] = molecular target: T8, norepinephrine transporter (NET) (Homo sapiens, UniProt P23975); experiment: Eurofins Cerep competition binding assay at norepinephrine transporter; settings: test ligand 10 μM; [3H]nisoxetine 1 nM; recombinant transporter, CHO membranes
T8 construct: host or cells: CHO
T8 sequence (P23975 whole entry): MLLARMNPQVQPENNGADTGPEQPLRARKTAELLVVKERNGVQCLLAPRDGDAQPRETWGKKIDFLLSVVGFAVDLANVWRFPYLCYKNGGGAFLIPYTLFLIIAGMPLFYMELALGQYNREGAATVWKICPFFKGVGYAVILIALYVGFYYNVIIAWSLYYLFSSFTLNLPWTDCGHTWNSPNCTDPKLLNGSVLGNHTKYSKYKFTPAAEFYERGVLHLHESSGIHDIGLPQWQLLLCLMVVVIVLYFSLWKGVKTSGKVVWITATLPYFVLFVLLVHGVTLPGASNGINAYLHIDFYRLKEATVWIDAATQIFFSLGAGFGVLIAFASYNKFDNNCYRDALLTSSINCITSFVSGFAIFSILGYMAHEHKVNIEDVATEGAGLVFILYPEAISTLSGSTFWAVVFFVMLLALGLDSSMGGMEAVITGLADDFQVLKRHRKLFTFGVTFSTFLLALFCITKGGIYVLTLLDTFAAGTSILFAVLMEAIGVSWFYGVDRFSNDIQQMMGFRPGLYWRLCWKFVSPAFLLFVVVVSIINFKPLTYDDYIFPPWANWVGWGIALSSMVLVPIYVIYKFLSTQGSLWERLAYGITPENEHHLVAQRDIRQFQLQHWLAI

[10] = molecular target: T9, 5-HT2C receptor (Homo sapiens, UniProt P28335); experiment: Eurofins Cerep competition binding assay at 5-HT2C receptor; settings: test ligand 10 μM; [125I](±)DOI 0.1 nM; recombinant receptor, HEK-293 membranes
T9 construct: host or cells: HEK-293
T9 sequence (P28335 33-458): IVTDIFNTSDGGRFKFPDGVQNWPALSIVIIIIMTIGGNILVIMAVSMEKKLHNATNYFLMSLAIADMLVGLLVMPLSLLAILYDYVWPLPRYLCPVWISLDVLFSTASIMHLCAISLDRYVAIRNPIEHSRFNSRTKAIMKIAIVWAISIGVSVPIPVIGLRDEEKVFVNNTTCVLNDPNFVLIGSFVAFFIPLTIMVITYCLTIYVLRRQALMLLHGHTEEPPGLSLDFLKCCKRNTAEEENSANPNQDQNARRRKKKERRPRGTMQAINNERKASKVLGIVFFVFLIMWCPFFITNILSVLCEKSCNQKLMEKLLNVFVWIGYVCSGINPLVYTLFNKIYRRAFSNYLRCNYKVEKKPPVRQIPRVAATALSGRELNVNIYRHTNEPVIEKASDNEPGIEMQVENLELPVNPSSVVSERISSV

[11] = molecular target: T10, alpha2A receptor (Homo sapiens, UniProt P08913); experiment: Eurofins Cerep competition binding assay at alpha2A receptor; settings: test ligand 10 μM; [3H]RX 821002 1 nM; recombinant receptor, CHO membranes; read-out: α-2A, percent of control-specific binding
T10 construct: host or cells: CHO
T10 sequence (P08913 1-465): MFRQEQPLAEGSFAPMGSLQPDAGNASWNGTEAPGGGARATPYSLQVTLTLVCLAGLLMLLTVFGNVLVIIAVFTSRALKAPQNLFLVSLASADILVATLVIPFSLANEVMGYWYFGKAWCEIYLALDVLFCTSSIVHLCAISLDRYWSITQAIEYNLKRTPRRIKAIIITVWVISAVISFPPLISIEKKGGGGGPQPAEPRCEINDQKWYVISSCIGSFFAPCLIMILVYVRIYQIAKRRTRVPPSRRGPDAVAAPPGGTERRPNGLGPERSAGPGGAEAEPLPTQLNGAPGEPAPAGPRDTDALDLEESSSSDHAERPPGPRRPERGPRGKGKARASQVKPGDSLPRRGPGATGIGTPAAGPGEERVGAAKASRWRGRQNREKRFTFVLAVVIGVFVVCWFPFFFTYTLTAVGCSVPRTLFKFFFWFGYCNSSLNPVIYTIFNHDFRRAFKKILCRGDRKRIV

[12] = molecular target: T6, 5-HT2A receptor; experiment: 5-HT2A receptor radioligand competition assay (SPA, [3H]ketanserin); assay type: binding; settings: for pKi: SPA competition, 1 nM [3H]ketanserin, membranes containing 5-HT2A; for 5-HT2A receptor binding, in words (competition curves FIGS. 23B-23H): ligand 3 nM to 1 mM
[13] = molecular target: T11, 5-HT2B receptor (Homo sapiens, UniProt P41595); experiment: Eurofins Cerep competition binding assay at 5-HT2B receptor; settings: test ligand 10 μM; [3H]mesulergine 2 nM; recombinant receptor, CHO membranes
T11 construct: host or cells: CHO
T11 sequence (P41595 whole entry): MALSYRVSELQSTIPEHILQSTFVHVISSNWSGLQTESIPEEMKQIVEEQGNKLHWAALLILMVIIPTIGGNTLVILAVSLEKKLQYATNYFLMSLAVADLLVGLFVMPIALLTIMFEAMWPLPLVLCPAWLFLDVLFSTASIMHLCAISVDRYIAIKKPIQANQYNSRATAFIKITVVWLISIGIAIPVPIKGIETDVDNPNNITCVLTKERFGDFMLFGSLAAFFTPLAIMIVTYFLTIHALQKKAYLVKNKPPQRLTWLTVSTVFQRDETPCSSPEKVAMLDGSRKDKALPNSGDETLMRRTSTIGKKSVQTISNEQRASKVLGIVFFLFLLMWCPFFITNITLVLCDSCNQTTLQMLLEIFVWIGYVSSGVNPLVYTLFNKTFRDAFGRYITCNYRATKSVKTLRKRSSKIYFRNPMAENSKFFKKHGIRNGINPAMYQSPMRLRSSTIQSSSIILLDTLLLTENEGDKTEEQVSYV

Question: Which “5-HT1A receptor binding, in words (competition curves FIGS. 22B-22L)” value [1] does the source give for `CCOc1c(OC)cc(CCN)cc1OC` [escaline] here?
Answer: binding to 5-HT1A receptor

Question: What about the “D2, percent of control-specific binding” value [2] of the same compound?
Answer: 5%

Question: What does the source list for `CC(C(=O)N1CCCC1)c1ccc2c(c1)OCO2` (racemic) [Ax(II)]?
Answer: DAT, percent of control-specific binding [3]: 5%; D3, percent of control-specific binding [4]: 0%; SERT, percent of control-specific binding [5]: 2%; HT1A, percent of control-specific binding [6]: 3%; HT2A, percent of control-specific binding [7]: 0%; pKi [1]: 3.97; MT1, percent of control-specific binding [8]: 5%; NET, percent of control-specific binding [9]: 0%; HT2C, percent of control-specific binding [10]: 0%; inhibition at 10 µM [11]: 0%; pKi [12]: 3.23; D2, percent of control-specific binding [2]: 0%; HT2B, percent of control-specific binding [13]: 5%

Question: `CC(CN1CCCC1)c1ccc2c(c1)OCO2` (racemic) [Bx(II)] was tested. Which “DAT, percent of control-specific binding” value [3] did it give?
Answer: 79%

Question: What about the “D3, percent of control-specific binding” value [4] of the same compound?
Answer: 14%

Question: What about the “SERT, percent of control-specific binding” value (“SERT, percent” for short) [5] of the same compound?
Answer: 81%

Question: What about the “HT1A, percent of control-specific binding” value [6] of the same compound?
Answer: 36%

Question: What about the “HT2A, percent of control-specific binding” value [7] of the same compound?
Answer: 10%

Question: And the pKi [1]?
Answer: 4.85

Question: And the “MT1, percent of control-specific binding” value [8]?
Answer: 0%

Question: And the “NET, percent of control-specific binding” value [9]?
Answer: 9%

Question: What about the “HT2C, percent of control-specific binding” value [10] of the same compound?
Answer: 52%

Question: What about the inhibition at 10 µM [11] of the same compound?
Answer: 19%

Question: And the “D2, percent of control-specific binding” value [2]?
Answer: 6%

Question: What about the “HT2B, percent of control-specific binding” value [13] of the same compound?
Answer: 38%

Question: For `CCCOc1c(OC)cc(CCN)cc1OC` [proscaline, reference compound], which “5-HT1A receptor binding, in words (competition curves FIGS. 22B-22L)” value [1] is on record?
Answer: binding to 5-HT1A receptor

Question: For `CN(C)CCc1c[nH]c2cccc(O)c12` [psilocin, reference compound], which “5-HT2A receptor binding, in words (competition curves FIGS. 23B-23H)” value [12] is on record?
Answer: binding at the 5-HT2A receptor

Question: With `CNC(C)Cc1ccc2c(c1)OCO2` (stereo not drawn) [MDMA, reference compound] as the compound, how does the “D2, percent of control-specific binding” value [2] read?
Answer: −10%

Question: Which “D2, percent of control-specific binding” value [2] does the source give for `COc1cc(CCN)c(OC)cc1Br` [2C-B, reference compound] here?
Answer: 42%

Question: How did the “D2, percent of control-specific binding” value [2] turn out when `COc1cc(CC(C)N)c(OC)cc1Br` (stereo not drawn) [DOB, reference compound] was run?
Answer: 9%

Question: Which results are given for `c1cc2c(cc1CC1=NCCO1)OCO2` [C(III)]?
Answer: DAT, percent of control-specific binding [3]: 19%; D3, percent of control-specific binding [4]: 10%; SERT, percent of control-specific binding [5]: 0%; HT1A, percent of control-specific binding [6]: 24%; HT2A, percent of control-specific binding [7]: 0%; pKi [1]: 4.51; MT1, percent of control-specific binding [8]: 12%; NET, percent of control-specific binding [9]: 0%; HT2C, percent of control-specific binding [10]: 12%; inhibition at 10 µM [11]: 19%; D2, percent of control-specific binding [2]: 0%; HT2B, percent of control-specific binding [13]: 19%

Question: What does the source list for `N[C@@H](Cc1c[nH]c2ccccc12)C(=O)O` [tryptophan, reference compound]?
Answer: 5-HT1A receptor binding, in words (competition curves FIGS. 22B-22L) [1]: no binding; 5-HT2A receptor binding, in words (competition curves FIGS. 23B-23H) [12]: lack of binding at the 5-HT2A receptor

Question: `CN(C)CCCN1c2ccccc2CCc2ccccc21` [Imipramine, imipramine, reference compound] was tested. Which “SERT, percent” value [5] did it give?
Answer: 98%

Question: Which results are given for `CC(CN(C)Cc1ccccc1)c1ccc2c(c1)OCO2` (racemic) [Bx(V)]?
Answer: DAT, percent of control-specific binding [3]: 78%; D3, percent of control-specific binding [4]: 19%; SERT, percent of control-specific binding [5]: 46%; HT1A, percent of control-specific binding [6]: 17%; HT2A, percent of control-specific binding [7]: 13%; pKi [1]: 4.35; 5-HT1A receptor binding, in words (competition curves FIGS. 22B-22L) [1]: above levels observed for negative controls; MT1, percent of control-specific binding [8]: 9%; NET, percent of control-specific binding [9]: 47%; HT2C, percent of control-specific binding [10]: 42%; inhibition at 10 µM [11]: 24%; pKi [12]: 4.20; 5-HT2A receptor binding, in words (competition curves FIGS. 23B-23H) [12]: above levels observed for negative control; D2, percent of control-specific binding [2]: 12%; HT2B, percent of control-specific binding [13]: 41%

Question: With `CC(C(=O)N(C)Cc1ccccc1)c1ccc2c(c1)OCO2` (racemic) [Ax(V)] as the compound, how does the “DAT, percent of control-specific binding” value [3] read?
Answer: 71%

Question: And the “D3, percent of control-specific binding” value [4]?
Answer: 8%

Question: And the “SERT, percent” value [5]?
Answer: 0%

Question: What about the “HT1A, percent of control-specific binding” value [6] of the same compound?
Answer: 2%

Question: And the “HT2A, percent of control-specific binding” value [7]?
Answer: 2%

Question: What about the pKi [1] of the same compound?
Answer: 3.73

Question: What about the “MT1, percent of control-specific binding” value [8] of the same compound?
Answer: 55%

Question: What about the “NET, percent of control-specific binding” value [9] of the same compound?
Answer: 13%

Question: And the “HT2C, percent of control-specific binding” value [10]?
Answer: 16%

Question: What about the inhibition at 10 µM [11] of the same compound?
Answer: 0%

Question: And the pKi [12]?
Answer: 4.08

Question: And the “D2, percent of control-specific binding” value [2]?
Answer: 0%

Question: What about the “HT2B, percent of control-specific binding” value [13] of the same compound?
Answer: 30%

Reference: patent US12492179B2, “Substituted ethylamine fused heterocyclic mescaline derivatives” (Enveric Biosciences Canada Inc., priority 2022, dated 2025)
